# Assay results reported in patent US20030158250A1, “Agents correcting gene expression regulatory error” (priority 2000, published 2003).
# Legend:
# Format in all cases: cell-based
# COX2 mRNA = test: RT-PCR of COX2 mRNA in monocytes; settings: human monocytes; for amplification of band ascribed to COX2 mRNA, stimulant alone: LPS or TPA alone, 4 hours, RT-PCR
# Experimental: (§1) Four-hundred milliliters of blood was collected from a human normal individual donor. The collected blood was diluted 2-folds with PBS(−), overlaid on Ficoll-paque (manufactured by Pharmacia), and centrifuged at 500×g for 20 minutes. The peripheral blood mononuclear cells (PBMCs) in the intermediate layer was collected with a pipette, and washed with RPMI 1640 medium (manufactured by Bio Whittaker). The collected PBMCs was suspended in a storage solution of 90% FCS (manufactured by JRH Biosciences)/10% dimethyl sulfoxide, and stored in liquid nitrogen. During the experiment, these stored PBMCs were rapidly melted in water bath at 37° C., and washed with RPMI 1640 medium containing 10 μg/ml Dnase (manufactured by Calbiochem). Thereafter, the number of living cells was calculated by trypan blue staining method, and subjected to each experiment.
# (§2) PBMCs were suspended in RPMI 1640 medium containing 5% human serum of blood type-AB, 0.1 mM nonessential amino acid, 1 mM sodium pyruvate, 2 mM L-glutamine (hereinabove manufactured by Bio Whittaker), 10 mM HEPES (manufactured by nakalai tesque), and 1% streptomycin-penicillin (manufactured by Gibco BRL) (hereinafter simply referred to as “5HRPMI medium”) so as to have a concentration of 4×10^6 cells/ml. Thereafter, the suspension was spread on a 6-well cell culture plate (manufactured by Falcon) in a volume of 3 ml/well, and the cells were incubated in a wet-type incubator at 37° C. and 5% CO2 for 1.5 hours. After 1.5 hours, the non-adherent cells were removed by suction, and each well was washed with RPMI 1640 medium, and 2 ml of the 5HRPMI medium was added to the wells, to give monocytes.
# (§3) To the monocytes obtained above was added in each well 8 μl of an aqueous DGE solution, or 8 μl of water as a control, and the cells were incubated in a wet-type incubator at 37° C. and 5% CO2 for 5 hours. Thereafter, with addition of 2 μl of a 1 μg/ml aqueous LPS solution or 2 μl of a 25 μM TPA dimethyl sulfoxide solution to each well, or with addition of neither of these substances thereto, the cells were cultured for additional 4 hours. Thereafter, RNA was prepared from each cell in accordance with the description of the kit using RNeasy Mini Kit (manufactured by QIAGEN, 74104). The group with addition of water alone or the aqueous DGE solution alone to the cells was set as a negative control, and the group with addition of water and the aqueous LPS solution or the aqueous TPA solution to the cells was set as a positive control. […]
# [1] = test system: signal peptidase complex (18 kDa) (SPC18); test: RT-PCR expression level of SPC18 gene in monocytes; settings: human monocytes, 30 PCR cycles
# Experimental: as §1, §2
# (§4) To the monocytes obtained above was added in each well 8 μl of an aqueous DGE solution, or 8 μl of water as a control, and the cells were incubated in a wet-type incubator at 37° C. and 5% CO2 for 5 hours. Thereafter, with addition of 2 μl of a 1 μg/ml aqueous LPS solution or 2 μl of a 25 μM TPA dimethyl sulfoxide solution to each well, or with addition of neither of these substances thereto, the cells were cultured for additional 4 hours. Thereafter, RNA was prepared from each cell in accordance with the description of the kit using RNeasy Mini Kit (manufactured by QIAGEN, 74104). The group with addition of water alone or the aqueous DGE solution alone to the cells was set as a negative control, and the group with addition of water and the aqueous LPS solution or the aqueous TPA solution to the cells was set as a positive control.
# (§5) A liquid mixture having a total volume of 60 μl of 0.5 μg of RNA prepared above, 10 mM Tris-HCl (pH 8.3), 50 mM KCl, 5 mM MgCl2, 1 mM dNTP mixtures, 150 pmol of Random 6 mers, 60 U Ribonuclease Inhibitor (manufactured by Takara Shuzo Co., Ltd., 2310A), and 15 U Reverse Transcriptase XL (AMV) (manufactured by Takara Shuzo Co., Ltd., 2620A) were incubated at 30° C. for 10 minutes and thereafter at 42° C. for 1 hour using a thermal cycler (GeneAmp PCR System 9600, manufactured by Applied Biosystems), and the mixture was heated at 99° C. for 5 minutes to deactivate the enzyme, to give cDNA.
# (§6) Oligonucleotide primers for reaction of PCR were designed based on mRNA nucleotide sequence of each gene listed in the following tables, and synthesized in the same manner as above. In Tables 4 and 5, each gene evaluated in this Example, GenBank Accession NO, the name of oligonucleotide primers and SEQ ID NOs of the primers in Sequence Listing were listed. […]
# [2] = test system: GABA(A) receptor-associated protein (GABArp); test: RT-PCR expression level of GABArp gene in monocytes; settings: human monocytes, 30 PCR cycles
# Experimental: as §1, §2, §4, §5, §6
# MIP1α mRNA = test: RT-PCR of MIP1α mRNA in monocytes; settings: human monocytes; for amplification of band ascribed to MIP1α mRNA, stimulant alone: LPS or TPA alone, 4 hours, RT-PCR
# Experimental: as §1, §2, §3
# RANTES mRNA = test: RT-PCR of RANTES mRNA in monocytes; settings: human monocytes
# Experimental: as §1
# PBMCs were suspended in RPMI 1640 medium containing 5% human serum of blood type-AB, 0.1 mM nonessential amino acid, 1 mM sodium pyruvate, 2 mM L-glutamine (hereinabove manufactured by Bio Whittaker), 10 mM HEPES (manufactured by nakalai tesque), and 1% streptomycin-penicillin (manufactured by Gibco BRL) (hereinafter simply referred to as “5HRPMI medium”) so as to have a concentration of 4×10^6 cells/ml. […]
# [3] = DGE 5 hours, then LPS 4 hours, RT-PCR band
# [4] = DGE 5 hours, then TPA 4 hours, RT-PCR band
# [5] = L + D: DGE and LPS, LPS alone +/−
# [6] = T + D: DGE and TPA, TPA alone +
# [7] = substance added alone, Con. (water) +
Compound,"induction of COX2 mRNA by LPS, effect of DGE (COX2 mRNA; [3])","induction of COX2 mRNA by TPA, effect of DGE (COX2 mRNA; [4])","expression level of SPC18 gene [1, 5]","expression level of SPC18 gene [1, 6]","expression level of SPC18 gene [1, 7]","expression level of GABArp gene [2, 5]","expression level of GABArp gene [2, 6]","expression level of GABArp gene [2, 7]","induction of MIP1α mRNA by LPS, effect of DGE (MIP1α mRNA; [3])","induction of MIP1α mRNA by TPA, effect of DGE (MIP1α mRNA; [4])","induction of RANTES mRNA by LPS, effect of DGE (RANTES mRNA; [3])","amplification of band ascribed to COX2 mRNA, stimulant alone (COX2 mRNA)","amplification of band ascribed to MIP1α mRNA, stimulant alone (MIP1α mRNA)","amplification of band ascribed to RANTES mRNA, stimulant alone (RANTES mRNA; LPS alone, 4 hours, RT-PCR)"
"O=C1C=CC(CO)OC1O [DGE, L-glycero-1,5-epoxy-1αβ,6-dihydroxy-cis-hex-3-en-2-one]",inhibited,inhibited,+,+,+,+,+,+,inhibited,inhibited,inhibited,–,–,–
"12-o-tetradecanoylphorbol 13-acetate [TPA, reference compound]",–,–,–,–,+,–,–,+,–,–,–,induction,induction,–
"lipopolysaccharide [LPS, reference compound]",–,–,–,–,+/−,–,–,+/−,–,–,–,induction,induction,induction
